This note sets out measurements from US20250002529A1, “NOVEL […] COMPOUNDS, PREPARATION METHODS, COMPOSITIONS AND APPLICATIONS” (Guangzhou Anobri Pharmaceutical Co. Ltd., priority 2021, published 2025).

Read-outs that look alike come from different tables or passages of the source.

Data set [1] is classed as in vivo, Male Wistar-Hannover rats.
In another data set the test system is SARS-CoV-2 virus. In words: In vitro anti-SARS-CoV-2 virus assay (Vero E6 cells, viral RNA by PCR). It is filed as cell-based.
Where [2] appears, read: Vero E6 cells, compound final concentration 100 nM, PCR of supernatant viral RNA after 2-3 days.

With `[2H]C1([2H])C[C@@H](C[C@@H](C#N)NC(=O)[C@@H]2[C@@H]3[C@H](CN2C(=O)[C@@H](NC(=O)C(F)(F)F)C(C)(C)C)C3(C)C)C(=O)N1` [Compound 1], in data set [1] (rats, dose 10 mg/kg, plasma), the “AUC0~∞” value was determined as 1974 ng·h/mL, the peak concentration (Cmax) was 1393 ng/mL, the T1/2 amounted to 3.5 h and the Tmax was found to be 2 h. Also, in the data set with SARS-CoV-2 virus (setting [2]), the “Inhibition rate (virus replication)” value is listed as 71.5%.

Take `[2H][C@@](C#N)(C[C@@H]1CCNC1=O)NC(=O)[C@@H]1[C@@H]2[C@H](CN1C(=O)[C@@H](NC(=O)C(F)(F)F)C(C)(C)C)C2(C)C` [Compound 2]: in data set [1] (rats, dose 10 mg/kg, plasma), the “AUC0~∞” value turned out to be 2325 ng·h/mL, the maximum concentration (Cmax) turned out to be 1480 ng/mL, the T1/2 is 4.2 h and the Tmax is reported as 2 h. Further, the “Inhibition rate (virus replication)” value in the data set on SARS-CoV-2 virus (setting [2]) was found to be 73.5%.

As for `[2H][C@](NC(=O)C(F)(F)F)(C(=O)N1C[C@H]2[C@@H]([C@H]1C(=O)N[C@H](C#N)C[C@@H]1CCNC1=O)C2(C)C)C(C)(C)C` [Compound 16], the Cmax in data set [1] (rat, in vivo, 10 mg/kg) was determined as 1452 ng/mL. In addition, in data set [1] (rats, dose 10 mg/kg, plasma), the “AUC0~∞” value is 2294 ng·h/mL, the T1/2 amounted to 4 h and the time of peak concentration (Tmax) came out at 2 h. Further, the “Inhibition rate (virus replication)” value in the data set on SARS-CoV-2 virus (setting [2]) stood at 72.6%.

As for `[2H]C([2H])([2H])C(C(NC(=O)C(F)(F)F)C(=O)N1C[C@H]2[C@@H]([C@H]1C(=O)N[C@H](C#N)C[C@@H]1CCNC1=O)C2(C)C)(C([2H])([2H])[2H])C([2H])([2H])[2H]` (stereo partly shown) [Compound 32], in data set [1] (rats, dose 10 mg/kg, plasma), the “AUC0~∞” value was found to be 2011 ng·h/mL, the highest concentration (Cmax) amounted to 1429 ng/mL, the T1/2 amounted to 3.5 h and the time of peak concentration (Tmax) is 2 h. For the same molecule, in the data set with SARS-CoV-2 virus (setting [2]), the “Inhibition rate (virus replication)” value was 70.4%.

`O=C(OC[C@H]1O[C@@H](OC(=O)c2cc(O)c(O)c(OC(=O)c3cc(O)c(O)c(O)c3)c2)[C@H](OC(=O)c2cc(O)c(O)c(OC(=O)c3cc(O)c(O)c(O)c3)c2)[C@@H](OC(=O)c2cc(O)c(O)c(OC(=O)c3cc(O)c(O)c(O)c3)c2)[C@@H]1OC(=O)c1cc(O)c(O)c(OC(=O)c2cc(O)c(O)c(O)c2)c1)c1cc(O)c(O)c(OC(=O)c2cc(O)c(O)c(O)c2)c1` [Control, tannic acid, reference compound]: the inhibition at 0.1 µM in the data set with SARS-CoV-2 virus (Severe acute respiratory syndrome coronavirus 2, Vero C1008, read-out: Inhibition rate (virus replication)) was found to be 54.1%.

Consider PF-07321332 [reference compound], for which, in the data set on SARS-CoV-2 virus (0.1 µM), the “Inhibition rate (virus replication)” value is recorded as 72.9%.

Broadly, the Cmax is the peak of the concentration-time curve. One may read the Tmax as the time from dosing to the highest level. In general, inhibition refers to the share of the control response that was lost under treatment.
